Source: patent publication US6548505B1, “Radioprotectors” (Peter MacCallum Cancer Institute, priority 1995, dated 2003)
Several values for one entry are separate records, joined by “and”; a condition that tells them apart may be missing. Equal entries are not always repeated.

Tests used:
[1] = test system: V79 cells; experiment: Radioprotection, clonogenic survival of irradiated V79 cells; format: cell-based
Method: (§1) Monolayers of V79 cells were maintained in 25 cm^2 Falcon plastic flasks in alpha-MEM medium with 10% foetal calf serum (FCS). Log phase cultures were treated by adding the required amount of Hoechst 33258, Hoechst 33342 or para dimethylamino Hoechst (25-500 nmoles) dissolved in 50 μL 10 μM acetic acid in 50% methanol. The flasks were inverted immediately prior to adding the compound to ensure complete mixing of the compound with the medium, before contact with the monolayer.
(§2) After 2 hours incubation at 37° C., the cells were harvested and assayed for clonogenic survival. […] All clonogenic survival results are expressed relative to the untreated controls.
Cultures were irradiated in a 137Cs Gammacell-40 (Atomic Energy of Canada Ltd.) at a dose rate of 0.84 Gy/min. Ligand-treated cells were irradiated two hours after starting the exposure to the ligand. In all cases, the clonogenic survival was delayed until one hour after completion of irradiation.
(§3) Hoechst 33258, Hoechst 33342 or para dimethylamino Hoechst was added to the media of monolayers of V79 cells, to the indicated final concentrations. […] All cultures were held for a further one hour prior to plating for clonogenic survival.
Mono layer cultures of V79 cells were exposed to various concentrations of the three radioprotectors, as described in (a) above. After two hours, the cells were chilled and kept cold during the isolation of nuclei, using 0.08% w.v Triton X-100. After counting an aliquot of the nuclear suspension, the ligands were extracted and quantitated by spectrophotometry and the nuclear content calculated. The survival results shown in the lower part of FIG. 1 were replotted using the nuclear uptake data and the results are shown in FIG. 2.
The first three columns show survival fraction relative to that for untreated control cells. Each row represents a separate experiment and the figures are the means of duplicates. The figures in square brackets is the mean of a number of the results of a number of experiments done over the relevant period. The protection factor is the ratio of survival fractions for irradiated cells, with and without protector.
A number of bibenzimidazoles represented by formula (I) have been synthesised and assayed for radioprotective activity in cell culture. Assays were conducted using V79 fibroblasts and involved exposure of the cells to a single radiation dose (12Gy) and comparison of the clonogenic survival with and without the inclusion of the protector in the cell culture medium. The ratio of the survival fractions (with protector/without), designated the protection ratio (PR12Gy), provides a measure of the extent of radioprotection. The experimental protocol adopted was as in Example 12.

[2] = test system: V79 cells; experiment: Cytotoxicity, clonogenic survival of V79 cells without irradiation
Method: as §1, §2, §3

[3] = test system: pig skin; experiment: Pig skin studies, topical radioprotector cream; format: in vivo; conditions: cream 0.15 g/field
From the text: The pig skin model is described by J. W. Hopewell^4. The structural similarities between human and pig skin underlie the relevance of the model.
Although some pig skin studies involve external beam irradiation, a particularly convenient radiation source is discs containing β-emitting isotopes, typically ^90Sr. The sources can be held to the skin, or for higher doses, taped to the animal, for appropriate periods of time to deliver the required dose. The discs are typically about 2 cm in diameter so that an array of different doses can be arranged on the flanks of a single animal.
The “acute” reactions (3-9 weeks after irradiation) result from radiation damage to the basal cells of the epidermis, and are manifest as erythema, and dry and moist desquamation. The “late” reactions (10-16 weeks) results from radiation effects to the dermal vascular connective tissue, characterized by a dusky mauve erythema and necrosis. The scoring system is well described.
The radioprotectors were formulated in a propylene glycol cream containing 10% DMSO. The extent and kinetics of penetration were followed by fluorescence microscopy of frozen skin sections, to enable optimization of delivery.
Radiation dose response curves were constructed for radiation only fields. The results of fields with radioprotector creams are shown in Table 3 below, with the respective cream (vehicle) only controls. The decrease in extent of skin reaction for the test fields is evident.

[4] = test system: mouse brain endothelial cells; experiment: Protection of mouse brain endothelial cells; format: in vivo; conditions: 80 mg/kg i.v. 10 minutes prior to radiation, within 24 hours, FIG. 6
Method: Irradiation of rodent brain results in the loss of a subset of brain endothelial cells within 24 hours after irradiation.
Endothelial cell numbers were scored as described by Lyubimova et al. Each point represents the mean for 3-4 mice; 3 sections were scored for each animal, a total of 30 fields were scored for each section, and the figure indicates the average number of cells per field. The error bars indicate standard errors.

[5] = test system: HT29; experiment: Radioprotection DMF in HT29 cells (Table 1); format: cell-based; conditions: HT29, 8.7 μM

## CCOc1ccc(-c2nc3ccc(-c4nc5ccc(N6CCN(C)CC6)cc5[nH]4)cc3[nH]2)cc1 [Hoechst 33342, 4-ethoxy-1-{5′[5′″-(4′″-methylpiperazin-1′″-yl)benzimidazol-2″-yl]benzimidazol-2′-yl}benzene, reference compound]
[1]; 21 μM, 12 Gy
  Protector plus irradiation (12 Gy), survival fraction relative to untreated control cells: 0.05 and 0.06 and 0.051
[1]; 21 μM, 12 Gy, ratio of survival fractions with and without protector
  Protection Factor: 2.3 and 2.7
[1]; V79, 21 μM, survival curves FIG. 3
  DMF: 1.3
[1]; V79, 12Gy 137Cs-γ, 20 μM
  Protection ratio 12Gy, Exp 1: 7.2
  Protection ratio 12Gy, Exp 4: 11.8
  Protection ratio 12Gy, Exp 9: 7.1
[2]; 21 μM
  Protector only (no irradiation), survival fraction relative to untreated control cells: 0.80 and 0.87 and 0.76
[2]; V79 cells, no irradiation, clonogenic survival, FIG. 1
  concentration above which the protector becomes cytotoxic: 20 to 30 µM
[3]; 36 Gy, 5000 μg/g
  Fields showing moist desquamation (10 weeks post-Irr.) #: 3/7
  Fields showing moist desquamation (10 weeks post-Irr.) %: 43%
[3]; 40 Gy, 500 μg/g
  Fields showing moist desquamation (10 weeks post-Irr.) #: 4/6
  Fields showing moist desquamation (10 weeks post-Irr.) %: 83%
[4]
  loss of endothelial cells of mouse brain after irradiation: protected
[5]
  DMF: 1.5
